Results reported in ChEMBL document CHEMBL1201862, “PubChem BioAssay data set” (2004).
Active and inactive are the calls of the source.

What was measured:
[1] = tested on: H9c2; assay: cells; assay type: functional, cell-based; conditions: Rattus norvegicus, H9c2, Myocardium;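 note: confirmatory concentration-response retest of ultra-high-throughput screening hits for modulation of myocardial damage; cell death induced by hydrogen peroxide oxidative stress; compound pretreatment for 60 min then peroxide exposure for 2 h; potency is for protecting the cells against peroxide damage rather than for killing them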
[2] = target: T1, Carboxy-terminal domain RNA polymerase II polypeptide A small phosphatase 1 (Homo sapiens, UniProt Q9GZU7); assay: inhibitors of CTDSP1, concentration-response testing, biochemical assay, absorbance-based, actives from ultra-high-throughput screening (AID 540297); assay type: functional
T1 sequence (Q9GZU7 whole entry): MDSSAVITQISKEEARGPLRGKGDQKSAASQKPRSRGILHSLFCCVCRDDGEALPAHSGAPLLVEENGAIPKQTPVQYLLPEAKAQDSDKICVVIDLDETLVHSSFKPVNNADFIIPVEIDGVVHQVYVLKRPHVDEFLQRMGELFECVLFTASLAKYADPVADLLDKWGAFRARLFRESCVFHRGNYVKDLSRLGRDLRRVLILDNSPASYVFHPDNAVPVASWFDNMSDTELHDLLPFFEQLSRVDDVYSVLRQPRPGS

[3] = target: Large T antigen (Simian virus 40, UniProt P03070); assay type: functional, Betapolyomavirus macacae;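 note: Confirmatory-stage PubChem screen for compounds that inhibit SV40 T antigen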
[4] = P. falciparum ATP4 D1247Y mutant growth inhibitors, dose response, NITD609-resistant line, SYBR Green, dry powder (AID 1159571); assay type: functional, cell-based;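 note: parasites synchronized at ring stage by sorbitol before testing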
[5] = P. falciparum 3D7-ScDHODH growth inhibitors, dose response, SYBR Green, dry powder samples (AID 1159570); assay type: functional, cell-based;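 note: parasite growth measured after 72 hours of compound exposure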
[6] = P. falciparum Dd2 growth inhibitors, dose response, SYBR Green, cherry-picked samples (AID 1159567); assay type: functional, cell-based
[7] = P. falciparum Dd2 growth inhibitors, dose response, SYBR Green, dry powder samples (AID 1159566); assay type: functional, cell-based;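 note: potency for growth inhibition with lower SYBR green DNA signal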
[8] = target: Glyceraldehyde-3-phosphate dehydrogenase (Homo sapiens, UniProt P04406)
[9] = HEp-2 cell cytotoxicity, dose response, cytotoxicity control for RSV inhibitor project, HTS (AID 2410); assay type: functional; conditions: human respiratory syncytial virus
[10] = tested on: P388; assay: cells; assay type: functional; conditions: Mus musculus
[11] = tested on: P388/ADR; assay: cells; assay type: functional; conditions: Mus musculus
[12] = tested on: SN12K1; assay: cells; assay type: functional; conditions: Homo sapiens
[13] = target: T2, Rac GTPase-activating protein 1 (Homo sapiens, UniProt Q9H0H5); assay: MgcRacGAP GTPase-activating activity inhibitors, confirmation, biochemical, ADP Hunter fluorescence, primary and confirmatory (AID 624330); assay type: functional
T2 sequence (Q9H0H5 whole entry): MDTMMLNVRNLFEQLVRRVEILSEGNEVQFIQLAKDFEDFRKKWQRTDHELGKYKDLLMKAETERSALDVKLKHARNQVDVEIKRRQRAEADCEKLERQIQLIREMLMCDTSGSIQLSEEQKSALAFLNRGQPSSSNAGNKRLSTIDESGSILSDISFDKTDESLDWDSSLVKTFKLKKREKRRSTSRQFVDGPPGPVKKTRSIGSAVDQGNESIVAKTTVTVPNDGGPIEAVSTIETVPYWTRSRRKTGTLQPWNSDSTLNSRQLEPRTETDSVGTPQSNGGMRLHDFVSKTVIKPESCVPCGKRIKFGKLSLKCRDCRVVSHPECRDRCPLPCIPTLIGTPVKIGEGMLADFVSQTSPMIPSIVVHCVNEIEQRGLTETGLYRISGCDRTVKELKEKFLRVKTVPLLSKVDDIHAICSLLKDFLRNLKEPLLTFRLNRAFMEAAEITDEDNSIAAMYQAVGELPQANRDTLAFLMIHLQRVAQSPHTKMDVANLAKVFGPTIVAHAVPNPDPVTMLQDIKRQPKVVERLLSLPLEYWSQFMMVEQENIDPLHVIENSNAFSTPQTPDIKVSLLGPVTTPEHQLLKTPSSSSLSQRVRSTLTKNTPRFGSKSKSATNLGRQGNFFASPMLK

[14] = target: FAD-linked sulfhydryl oxidase ALR (Homo sapiens, UniProt P55789); assay: inhibitors of human ALR sulfhydryl oxidase, dose response, biochemical, H2O2 detection, luminescence, cherry-pick (AID 493248)
[15] = target: T3, Leucine aminopeptidase (Plasmodium falciparum 3D7, UniProt Q8IL11); assay: P. falciparum M17LAP inhibitors, primary screen, biochemical, fluorogenic H-Leu-NHMec substrate, 1536-well (AID 1619); assay type: functional
T3 sequence (Q8IL11 whole entry): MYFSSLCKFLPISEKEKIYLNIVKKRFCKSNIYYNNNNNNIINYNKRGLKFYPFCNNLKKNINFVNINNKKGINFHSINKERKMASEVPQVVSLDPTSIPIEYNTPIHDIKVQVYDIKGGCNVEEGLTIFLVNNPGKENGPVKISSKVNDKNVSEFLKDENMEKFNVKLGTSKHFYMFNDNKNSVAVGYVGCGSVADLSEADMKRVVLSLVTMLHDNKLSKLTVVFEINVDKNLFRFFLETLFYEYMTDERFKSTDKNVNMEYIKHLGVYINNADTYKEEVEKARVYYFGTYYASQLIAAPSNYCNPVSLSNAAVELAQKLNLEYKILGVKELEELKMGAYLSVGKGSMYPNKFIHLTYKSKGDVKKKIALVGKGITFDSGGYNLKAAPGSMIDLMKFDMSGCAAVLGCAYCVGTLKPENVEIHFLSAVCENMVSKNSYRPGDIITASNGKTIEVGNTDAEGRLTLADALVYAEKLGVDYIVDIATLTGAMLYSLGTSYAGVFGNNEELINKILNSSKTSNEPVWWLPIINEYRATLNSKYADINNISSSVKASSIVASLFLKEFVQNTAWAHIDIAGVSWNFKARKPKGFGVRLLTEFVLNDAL

[16] = target: Cytochrome P450 2D6 (Homo sapiens, UniProt P10635);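 note: CYP2D6 member of a cytochrome P450 panel assay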
[17] = tested on: Vero; assay: Vero cell cytotoxicity, cytotoxicity control for flavivirus capping enzyme inhibitors (AID 588742); assay type: functional; conditions: Chlorocebus sabaeus
[18] = target: T4, Mannose-6-phosphate isomerase (Homo sapiens, UniProt P34949); assay: human PMI inhibitors, high substrate, primary screen, biochemical, fluorescence intensity, high mannose 6-phosphate (AID 1220)
T4 sequence (P34949 whole entry): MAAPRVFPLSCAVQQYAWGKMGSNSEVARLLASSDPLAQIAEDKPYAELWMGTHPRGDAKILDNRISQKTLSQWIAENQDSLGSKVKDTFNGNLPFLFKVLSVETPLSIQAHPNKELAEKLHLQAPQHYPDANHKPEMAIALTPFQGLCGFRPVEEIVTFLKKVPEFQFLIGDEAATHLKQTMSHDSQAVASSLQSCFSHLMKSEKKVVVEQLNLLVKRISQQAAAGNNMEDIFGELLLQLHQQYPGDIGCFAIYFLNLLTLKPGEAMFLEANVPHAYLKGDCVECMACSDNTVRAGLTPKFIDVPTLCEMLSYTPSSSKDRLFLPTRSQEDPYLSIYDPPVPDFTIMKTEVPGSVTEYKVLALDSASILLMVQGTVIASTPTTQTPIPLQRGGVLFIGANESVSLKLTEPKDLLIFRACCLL

[19] = target: T5, Heat shock factor protein 1 (Mus musculus, UniProt P38532); assay: HSF1 potentiators in luciferase reporter cells, confirmation, cell-based, NIH3T3, luminescence, dose retest (AID 435004); assay type: functional;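 note: stress induced by proteasome inhibitor MG132 added 30 min after compound; luciferase reporter driven by HSF1 response element in NIH3T3 cells; actives raise luminescence as potentiators of the MG132 stress response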
T5 sequence (P38532 whole entry): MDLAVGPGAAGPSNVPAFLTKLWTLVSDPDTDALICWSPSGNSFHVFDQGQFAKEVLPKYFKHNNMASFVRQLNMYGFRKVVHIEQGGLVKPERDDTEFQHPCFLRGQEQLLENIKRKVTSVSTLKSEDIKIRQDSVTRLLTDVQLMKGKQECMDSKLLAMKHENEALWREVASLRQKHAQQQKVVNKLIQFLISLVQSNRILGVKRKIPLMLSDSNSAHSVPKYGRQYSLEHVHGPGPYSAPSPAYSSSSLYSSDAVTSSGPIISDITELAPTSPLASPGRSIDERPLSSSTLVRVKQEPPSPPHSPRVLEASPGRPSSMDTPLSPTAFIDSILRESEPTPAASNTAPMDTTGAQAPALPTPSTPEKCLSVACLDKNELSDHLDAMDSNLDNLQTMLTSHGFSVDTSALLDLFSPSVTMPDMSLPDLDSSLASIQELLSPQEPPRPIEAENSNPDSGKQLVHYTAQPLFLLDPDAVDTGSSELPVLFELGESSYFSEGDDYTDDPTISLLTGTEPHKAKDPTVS

Chain of Glyceraldehyde-3-phosphate dehydrogenase (P04406 whole entry): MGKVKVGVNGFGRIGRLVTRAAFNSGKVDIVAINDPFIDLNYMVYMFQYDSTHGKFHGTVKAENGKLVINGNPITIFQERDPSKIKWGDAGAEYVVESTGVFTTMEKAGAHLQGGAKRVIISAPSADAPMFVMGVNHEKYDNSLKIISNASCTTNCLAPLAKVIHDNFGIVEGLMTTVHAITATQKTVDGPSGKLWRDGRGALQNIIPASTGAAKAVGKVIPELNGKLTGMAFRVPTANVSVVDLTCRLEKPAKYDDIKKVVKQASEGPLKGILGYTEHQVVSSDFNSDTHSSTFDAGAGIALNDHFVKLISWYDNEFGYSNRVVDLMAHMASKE
Chain of Large T antigen (P03070 whole entry): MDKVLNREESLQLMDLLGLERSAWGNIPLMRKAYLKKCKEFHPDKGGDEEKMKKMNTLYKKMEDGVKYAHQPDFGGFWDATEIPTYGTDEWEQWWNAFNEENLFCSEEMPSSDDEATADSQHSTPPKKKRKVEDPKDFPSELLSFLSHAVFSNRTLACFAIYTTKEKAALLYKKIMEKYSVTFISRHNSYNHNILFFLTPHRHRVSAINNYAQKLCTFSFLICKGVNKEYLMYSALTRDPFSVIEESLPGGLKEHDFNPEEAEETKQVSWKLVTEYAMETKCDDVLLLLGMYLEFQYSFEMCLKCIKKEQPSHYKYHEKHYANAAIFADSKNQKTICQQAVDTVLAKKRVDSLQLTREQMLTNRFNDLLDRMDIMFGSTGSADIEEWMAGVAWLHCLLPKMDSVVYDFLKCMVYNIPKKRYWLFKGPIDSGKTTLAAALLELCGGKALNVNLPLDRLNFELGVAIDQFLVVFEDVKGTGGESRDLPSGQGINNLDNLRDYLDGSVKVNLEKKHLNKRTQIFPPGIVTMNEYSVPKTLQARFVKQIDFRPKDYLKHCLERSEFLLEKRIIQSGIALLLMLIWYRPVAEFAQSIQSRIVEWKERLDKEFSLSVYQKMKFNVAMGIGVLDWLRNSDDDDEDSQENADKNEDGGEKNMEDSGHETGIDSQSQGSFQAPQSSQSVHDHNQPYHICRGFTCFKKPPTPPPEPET
Chain of Cytochrome P450 2D6 (P10635 whole entry): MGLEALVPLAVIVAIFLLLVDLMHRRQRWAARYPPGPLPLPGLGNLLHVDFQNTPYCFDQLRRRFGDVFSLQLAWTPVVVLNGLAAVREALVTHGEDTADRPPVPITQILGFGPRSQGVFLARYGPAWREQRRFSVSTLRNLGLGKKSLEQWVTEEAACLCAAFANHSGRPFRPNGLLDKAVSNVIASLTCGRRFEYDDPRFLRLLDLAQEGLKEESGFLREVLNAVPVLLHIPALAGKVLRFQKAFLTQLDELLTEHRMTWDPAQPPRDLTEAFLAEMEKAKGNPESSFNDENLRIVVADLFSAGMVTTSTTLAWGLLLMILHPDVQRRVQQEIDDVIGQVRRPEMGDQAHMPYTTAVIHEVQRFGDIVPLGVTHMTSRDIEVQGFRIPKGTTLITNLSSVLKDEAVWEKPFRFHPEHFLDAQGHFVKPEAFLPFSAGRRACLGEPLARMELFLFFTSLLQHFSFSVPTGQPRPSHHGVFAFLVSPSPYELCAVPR
Chain of FAD-linked sulfhydryl oxidase ALR (P55789 whole entry): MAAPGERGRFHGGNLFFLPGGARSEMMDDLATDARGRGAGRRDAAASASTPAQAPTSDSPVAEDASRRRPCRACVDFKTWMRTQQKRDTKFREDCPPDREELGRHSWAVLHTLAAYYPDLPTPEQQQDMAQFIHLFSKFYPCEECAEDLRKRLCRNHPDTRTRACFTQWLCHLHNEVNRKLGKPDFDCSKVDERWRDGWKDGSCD

SMILES: COc1ccc(C(=O)O/N=C(/c2ccccc2)c2ccncc2)cc1OC
- IC50 [1]: 6.72 µM (active)

SMILES: C[C@H](CCC(=O)O)[C@H]1CC[C@H]2[C@@H]3CC[C@@H]4C[C@H](O)CC[C@]4(C)[C@H]3CC[C@]12C [LITHOCHOLIC ACID]
- IC50 [2]: 4.82 µM (active)
- IC50 [3]: 26.1 µM (active)

SMILES: O=C(C1CCCC1)N1CC(=O)N2[C@H](CO)[C@H](c3ccc(-c4cccnc4)cc3)[C@H]2C1
- AC50 [4]: 1.85 µM (active)
- AC50 [5]: 2.33 µM (active)
- AC50 [6]: 1.47 µM (active)
- AC50 [7]: 1.11 µM (active)

SMILES: CCOc1ccc(Cl)cc1S(=O)(=O)Nc1cccnc1
- IC50 [8]: > 100 µM (not active)

SMILES: COc1ccc(Cl)cc1NC(=O)CCS(=O)(=O)c1cc2c(cc1C)NC(=O)CO2
- IC50 [1]: > 79 µM (inactive)

SMILES: c1cncc(-c2nc(NCC3COc4ccccc4O3)c3ccccc3n2)c1 (configuration not stated)
- CC50 [9]: 10.2 µM (active)
- IC50 [1]: > 79 µM (inactive)

SMILES: O=C(CN1CCN(Cc2ccccc2)CC1)Nc1ccc([N+](=O)[O-])cc1C(=O)Nc1ccccc1F
- IC50 [1]: > 79 µM (inactive)

SMILES: COC(=O)[C@@H]1c2cc3c(c(O)c2[C@@H](OC)C[C@@]1(C)O)C(=O)c1c(O)cc2c(c1C3=O)OC1O[C@@]2(C)[C@H](O)[C@@H](N(C)C)[C@@H]1O
- GI50 [10]: 0.092 µM (active)
- GI50 [11]: 1.29 µM (inactive)
- GI50 [12]: 0.352 µM (active)

SMILES: Cc1cc(NS(=O)(=O)c2ccc(Nc3nc(-c4ccc(O)cc4)cs3)cc2)no1
- IC50 [13]: 30.8 µM (active)
- AC50 [14]: 0.108 µM (active)
- IC50 [3]: > 100 µM (active)

SMILES: Cc1ccc(N2C(=O)C(Cl)=C(N3CCN(c4ccccc4)CC3)C2=O)cc1
- IC50 [8]: > 50 µM (inconclusive)

SMILES: O=C(/C=C/c1ccc(Cl)c([N+](=O)[O-])c1)Nc1cccnc1
- IC50 [1]: > 79 µM (inactive)

SMILES: O=C(O)c1cccc(Cn2c(Cl)c(/C=N/NC(=O)c3ccccc3Cl)sc2=O)c1
- IC50 [15]: 34.1 µM (active)

SMILES: CC(C)NC(=O)N1[C@@H](CO)[C@@H](c2ccccc2)C12CN(Cc1ccc(F)cc1)C2
- AC50 [4]: 2.17 µM (active)
- AC50 [5]: 4 µM (active)
- AC50 [6]: 3.25 µM (active)
- AC50 [7]: 1.95 µM (active)

SMILES: O=C(O)C1=CC(=C(c2ccc(O)c(C(=O)O)c2)c2ccc(O)c(C(=O)O)c2)C=CC1=O [AURINTRICARBOXYLIC ACID]
- IC50 [3]: 1.93 µM (active)
- AC50 [16]: 39.8 µM (inconclusive)

SMILES: Cn1c2ccccc2c(=O)c2c(O)cc3c(c21)C=CC(C)(C)O3 [NORACRONYCINE]
- GI50 [10]: > 25 µM (inactive)
- GI50 [11]: > 25 µM (inactive)
- GI50 [12]: > 25 µM (inactive)

SMILES: CCCC#Cc1ccc2c(c1)O[C@H](CN(C)C(=O)Nc1ccc(OC)cc1)[C@H](C)CN([C@H](C)CO)S2(=O)=O
- AC50 [4]: 1.45 µM (active)
- AC50 [5]: 1.37 µM (active)
- AC50 [6]: 1.94 µM (active)
- AC50 [7]: 1.82 µM (active)

SMILES: CCOC(=O)COc1ncn(-c2ccccc2)n1
- IC50 [15]: 13.9 µM (active)

SMILES: C[C@H]1[C@@H]2C[C@@H]3O[C@@]34[C@H]3CCC5Cc6nc7c(nc6C[C@@]5(C)[C@]3(O)CC(=O)[C@@]24CO[C@]12OC(C)(C)C[C@@H]2O)CC1CC[C@@H]2C3=C[C@H]4O[C@@]5(OC(C)(CO)C[C@@H]5O)[C@H](C)[C@@]4(O)[C@]3(C)[C@@H](O)CC2[C@]1(C)C7 (some centres not stated)
- GI50 [10]: 0.0017 µM (active)
- GI50 [11]: 0.0718 µM (active)
- GI50 [12]: 0.00221 µM (active)

SMILES: COc1ccc2c(c1)-c1nc(/N=C/c3ccccc3O)sc1CC2
- IC50 [13]: 20 µM (active)
- CC50 [17]: > 40 µM (active)
- IC50 [18]: > 50 µM (not active)

SMILES: COc1ccccc1S(=O)(=O)N(C)C[C@H]1OCc2ccccc2-c2c(n(C)c3ccccc23)C(=O)N([C@@H](C)CO)C[C@@H]1C
- AC50 [4]: 1.02 µM (active)
- AC50 [5]: 2.03 µM (active)
- AC50 [6]: 2.1 µM (active)
- AC50 [7]: 1.09 µM (active)

SMILES: O=C(Nc1ccc(C2=NCCN2)cc1)c1cncc(C(=O)Nc2ccc(C3=NCCN3)cc2)c1
- GI50 [10]: 24.2 µM (inactive)
- GI50 [11]: > 100 µM (inactive)
- GI50 [12]: > 100 µM (inactive)

SMILES: CCC1CN2CCC1CC2 (configuration not stated)
- GI50 [10]: 80.4 µM (inactive)
- GI50 [11]: > 100 µM (inactive)
- GI50 [12]: > 100 µM (inactive)

SMILES: C[C@@H]1CN([C@@H](C)CO)C(=O)c2cccc(NC(=O)c3nc4ccccc4s3)c2O[C@H]1CN(C)C(=O)Nc1ccc2c(c1)OCO2
- AC50 [4]: 1.18 µM (active)
- AC50 [5]: 0.985 µM (active)
- AC50 [6]: 2.35 µM (active)
- AC50 [7]: 1.37 µM (active)

SMILES: Cc1cc(C)n2nc(C(=O)N/N=C/c3c4ccccc4cc4ccccc34)nc2n1
- EC50 [19]: > 260 µM (inactive)
- IC50 [1]: > 79 µM (inactive)

SMILES: S=c1[nH]c(-c2ccccc2)nn1-c1ccccc1
- IC50 [15]: 11.5 µM (active)

SMILES: COc1ccc(N2CCN(C3=C(Cl)C(=O)N(c4ccc(Cl)nc4)C3=O)CC2)cc1
- IC50 [8]: > 50 µM (inconclusive)

SMILES: O=C(O)CCCCCCCCC(=O)O [SEBACIC ACID]
- GI50 [10]: 316 µM (inactive)
- GI50 [11]: > 500 µM (inactive)
- GI50 [12]: > 500 µM (inactive)
